Source: patent US7666446B2, “Oral formulation for delivery of poorly absorbed drugs” (ProCarrier, Inc., priority 2004, dated 2010)
Read-outs that look alike come from different tables or passages of the source. Values belong to the compound of their own block, whether it stands above or below them.

How the values were obtained:
[1] = Plasma calcitonin after intraduodenal calcitonin/PEP (ELISA); format: in vivo; conditions: male, Sprague-Dawley, rat, rats, read-out: Average plasma concentration of Calcitonin
Protocol: (§1) The abdominal muscle was sutured under the skin. […] Four rats were in each treatment group. […]
Plasma was analyzed by ELISA according to methods well known in the art.

[2] = Plasma aztreonam after intraduodenal aztreonam/PEP (HPLC); format: in vivo; conditions: male, Sprague-Dawley, rat, rats
Protocol: as §1
Aztreonam solution (containing arginine as a pH adjuster) was mixed with a solution of methylcellulose, and this mixture was added to solutions of glucosamine and sucrose palmitate in water before administration to rats. […] The contents of aztreonam/PEP comprised an individual dosage of 40 mg/kg aztreonam, 400 mg/kg sucrose palmitate, glucosamine in a 1:4 mole ratio of aztreonam to glucosamine, methylcellulose in a 1:0.5 mole ratio of aztreonam to methylcellulose, and arginine in a 1:0.6 mole ratio of aztreonam to arginine. […] Plasma was analyzed by HPLC, and bioavailability was calculated.

[3] = Plasma teicoplanin after intraduodenal teicoplanin/PEP (HPLC); format: in vivo; conditions: rats
Protocol: as §1
(§2) Teicoplanin solution was mixed with a solution of methylcellulose, and this mixture was added to solutions of glucosamine and sucrose stearate in water before administration to rats. […] The contents of teicoplanin/PEP comprised an individual dosage of 64 mg/kg teicoplanin, 400 mg/kg sucrose stearate, glucosamine in a 1:4 mole ratio of teicoplanin to glucosamine, and methylcellulose in a 1:0.5 mole ratio of teicoplanin to methylcellulose. […] Plasma was analyzed by HPLC, and bioavailability was calculated.

[4] = Decomposition test: rhGH concentration by ELISA after shaking; format: physicochemical
Protocol: A solution of rhGH (5 ng/mL) was prepared in 20 mM phosphate buffer. The phosphate buffer was prepared in triple-distilled, filtered water (0.22 μm filter), and its pH was adjusted to pH 7.4 with sodium hydroxide solution. Solutions of rhGH were shaken for 1 min at high speed with a vortex mixer (Scientific Industries Inc.). After shaking, samples were equilibrated for specific time intervals at room temperature. Concentrations of rhGH were then determined by ELISA according to methods well known in the art.

[5] = Intraduodenal absorption of rhGH/PEP solutions, rhGH by ELISA (Example 3); format: in vivo, male Sprague-Dawley rats; conditions: rats, rhGH administered without PEP solution
Protocol: RhGH solutions containing a promoter (glucosamine or poly-L-lysine), an enhancer (sucrose laurate 16), and a protector (methylcellulose) were prepared in water according to the proportions set out in Table 2.
as §1

[6] = rat, in vivo
Protocol: To determine absorption from the intestine, male Sprague Dawley rats weighing 250-300 g with free access to water were fasted for about 18 h prior to experiments. These rats were anesthetized and maintained with Ketamine/Xylazine (([…])/(80 mg/kg)) by intraperitoneal injection. The small intestine was exposed by a midline abdominal incision. A small incision was made in the stomach to insert a polyethylene tube (i.d. 0.76 mm, o.d. 1.22 mm, Clay Adams), toward the middle duodenum, which was closed at the exposed end by a stopcock to prevent drainage of drug solution from the duodenum. Blood samples were taken with a heparinized syringe through the jugular vein catheter at predetermined time intervals. After collecting, samples were coagulated for about 90 min and then were centrifuged for 10 min at 6000 rpm. The supernatant was removed and stored at −20° C. Samples were analyzed for hGH protein levels with a Human Growth Hormone ELISA Kit (coated plate, ICN Diagnostics) according to the manufacturer's protocol.
For the controls, either glucosamine 40 mg/kg plus sucrose laurate 40 mg/kg (i.e., 100 units of carrier) or 10 mg/kg of rhGH (Advanced Protein Technologies Inc., Suwon, Korea) were administered per intraduodenum. […] To evaluate the effect of varying the amount of carrier administered, the amount of rhGH was held at 3 mg/kg rhGH and the Tmax was measured. […] In the case of intraduodenal administration, the controls were fixed at 10 units of carrier. The amount of rhGH was varied to include 1, 3, and 10 mg/kg of rhGH.
Finally, to evaluate the effectiveness of the carrier itself, the type of carrier was varied while maintaining the same level of rhGH (3 mg/kg).

[7] = diabetic rats, intraduodenal, insulin 50 IU/kg in carrier (100 units)
Source text: as §1

diabetes induced rats = test: Serum glucose after intraduodenal insulin/PEP in diabetic rats; format: in vivo; conditions: insulin 50 IU/kg in carrier (100 units)
Source text: as §1

non-diabetic rats = test: Serum glucose after intraduodenal insulin/PEP in non-diabetic rats; format: in vivo; conditions: insulin 50 IU/kg in carrier (100 units)
Source text: as §1

[8] = Plasma netilmicin after intraduodenal netilmicin/PEP (HPLC); format: in vivo; conditions: male, Sprague-Dawley, rat, rats
Protocol: as §1
as §2, with “Netilmicin” for “Teicoplanin”, “netilmicin/PEP” for “teicoplanin/PEP”, “80” for “64”, “netilmicin,” for “teicoplanin,”, “netilmicin” for “teicoplanin”

[9] = Plasma isepamicin after intraduodenal isepamicin/PEP (HPLC); format: in vivo; conditions: male, Sprague-Dawley, rat, other: intraduodenal, rats
Protocol: as §1
Isepamicin solution was mixed with methylcellulose solution, and the resulting mixture was mixed with solutions of glucosamine and sucrose stearate 16 in water before administration to rats. […] The contents of isepamicin/PEP comprised an individual dosage of 75 mg/kg isepamicin, 400 mg/kg sucrose stearate, glucosamine in a 1:4 mole ratio of isepamicin to glucosamine, and methylcellulose in a 1:0.5 mole ratio of isepamicin to methylcellulose. […] Plasma was analyzed by HPLC, and bioavailability was calculated.

Compound: CC(C)C[C@H](NC(=O)[C@H](CCCCN)NC(=O)CNC(=O)[C@H](CC(C)C)NC(=O)[C@@H](NC(=O)[C@@H]1CSSC[C@H](N)C(=O)N[C@@H](CO)C(=O)N[C@@H](CC(N)=O)C(=O)N[C@@H](CC(C)C)C(=O)N[C@@H](CO)C(=O)N[C@@H]([C@@H](C)O)C(=O)N1)C(C)C)C(=O)N[C@@H](CO)C(=O)N[C@@H](CCC(N)=O)C(=O)N[C@@H](CCC(=O)O)C(=O)N[C@@H](CC(C)C)C(=O)N[C@@H](Cc1c[nH]cn1)C(=O)N[C@@H](CCCCN)C(=O)N[C@@H](CC(C)C)C(=O)N[C@@H](CCC(N)=O)C(=O)N[C@H](C(=O)N[C@@H](Cc1ccc(O)cc1)C(=O)N1CCC[C@H]1C(=O)N[C@@H](CCCNC(=N)N)C(=O)N[C@H](C(=O)N[C@@H](CC(N)=O)C(=O)N[C@H](C(=O)NCC(=O)N[C@@H](CO)C(=O)NCC(=O)N[C@H](C(=O)N1CCC[C@H]1C(N)=O)[C@@H](C)O)[C@@H](C)O)[C@@H](C)O)[C@@H](C)O [Calcitonin]
- level at 0.5 h ([1]; calcitonin/PEP 2 mg/kg calcitonin, 30 min): 8.61 ng/mL
- level at 0.75 h ([1]; calcitonin/PEP 2 mg/kg calcitonin, 45 min): 10.9 ng/mL
- level at 1 h ([1]; calcitonin/PEP 2 mg/kg calcitonin, 60 min): 7.55 ng/mL
- level at 1.5 h ([1]; calcitonin/PEP 2 mg/kg calcitonin, 90 min): 3.36 ng/mL
- level at 2 h ([1]; calcitonin/PEP 2 mg/kg calcitonin, 120 min): 1.72 ng/mL
- level at 3 h ([1]; calcitonin/PEP 2 mg/kg calcitonin, 180 min): 0.69 ng/mL
- level at 4 h ([1]; calcitonin/PEP 2 mg/kg calcitonin, 240 min): 0.99 ng/mL
- level at 0.25 h ([1]; calcitonin/PEP (2 mg/kg calcitonin, 40 mg/kg sucrose laurate 16, glucosamine, methylcellulose), 15 min): 8.02 ng/mL

Compound: C[C@H]1[C@H](NC(=O)/C(=N\OC(C)(C)C(=O)O)c2csc(N)n2)C(=O)N1S(=O)(=O)O [Aztreonam]
- concentration at 60 min ([2]; other: intraduodenal, aztreonam/PEP 40 mg/kg aztreonam, 60 min): 97000 ng/mL
- concentration at 90 min ([2]; other: intraduodenal, aztreonam/PEP 40 mg/kg aztreonam, 90 min): 87900 ng/mL
- concentration at 120 min ([2]; other: intraduodenal, aztreonam/PEP 40 mg/kg aztreonam, 120 min): 89600 ng/mL
- concentration at 180 min ([2]; other: intraduodenal, aztreonam/PEP 40 mg/kg aztreonam, 180 min): 67000 ng/mL
- concentration at 240 min ([2]; other: intraduodenal, aztreonam/PEP 40 mg/kg aztreonam, 240 min): 55200 ng/mL
- concentration at 30 min ([2]; other: intraduodenal, aztreonam/PEP (40 mg/kg aztreonam, 400 mg/kg sucrose palmitate, glucosamine, methylcellulose, arginine), 30 min): 95400 ng/mL
- bioavailability ([2]; aztreonam/PEP 40 mg/kg aztreonam, read-out: percent bioavailability): 91.1 ± 14.6%

Compound: rhGH: recombinant human growth hormone
- Concentration rhGH ([4]; 0 min, 5 ng/mL rhGH, phosphate buffer pH 7.4): 5 ng/mL
- Concentration rhGH ([4]; 1 min after shaking, room temperature): 1.05 ng/mL
- Concentration rhGH ([4]; 30 min after shaking, room temperature): 0.65 ng/mL
- Concentration rhGH ([4]; 60 min after shaking, room temperature): 0.43 ng/mL
- Concentration rhGH ([4]; 90 min after shaking, room temperature): 0.40 ng/mL
- rhGH in serum [5]: not detected
- Tmax ([6]; 3 mg/kg): less than 20 min
- absorption of rhGH ([6]; 3 mg/kg): increased absorption
- bioavailability ([6]; 3 mg/kg): 7.1%
- peak serum rhGH concentration ([6]; sc, 0.1 mg/kg): 73 ng/mL

Compound: insulin: insulin given with methylcellulose, sucrose laurate 16 and glucosamine (insulin/PEP composition)
- serum insulin [7]: detected
- hypoglycemic effect (serum glucose) (diabetes induced rats): significant hypoglycemic effects were observed
- hypoglycemic response (serum glucose) (non-diabetic rats): No significant hypoglycemic response

Next, values leading:

- percent bioavailability ([3]; teicoplanin/PEP 64 mg/kg teicoplanin): 35.07%
- Average plasma concentration Teicoplanin ([3]; teicoplanin/PEP 64 mg/kg teicoplanin, 60 min): 9.50 µg/mL
- Average plasma concentration Teicoplanin ([3]; teicoplanin/PEP 64 mg/kg teicoplanin, 120 min): 10.36 µg/mL
- Average plasma concentration Teicoplanin ([3]; teicoplanin/PEP 64 mg/kg teicoplanin, 180 min): 12.22 µg/mL
- Average plasma concentration Teicoplanin ([3]; teicoplanin/PEP 64 mg/kg teicoplanin, 240 min): 11.29 µg/mL
- Average plasma concentration Teicoplanin ([3]; teicoplanin/PEP (64 mg/kg teicoplanin, 400 mg/kg sucrose stearate, glucosamine, methylcellulose), 30 min): 11.14 µg/mL
Compound: Teicoplanin

- concentration at 60 min ([8]; other: intraduodenal, netilmicin/PEP 80 mg/kg netilmicin, 60 min): 70700 ng/mL
- concentration at 120 min ([8]; other: intraduodenal, netilmicin/PEP 80 mg/kg netilmicin, 120 min): 39300 ng/mL
- concentration at 180 min ([8]; other: intraduodenal, netilmicin/PEP 80 mg/kg netilmicin, 180 min): 38900 ng/mL
- concentration at 240 min ([8]; other: intraduodenal, netilmicin/PEP 80 mg/kg netilmicin, 240 min): 35800 ng/mL
- concentration at 360 min ([8]; other: intraduodenal, netilmicin/PEP 80 mg/kg netilmicin, 360 min): 34800 ng/mL
- concentration at 30 min ([8]; other: intraduodenal, netilmicin/PEP (80 mg/kg netilmicin, 400 mg/kg sucrose stearate, glucosamine, methylcellulose), 30 min): 62100 ng/mL
- bioavailability ([8]; netilmicin/PEP 80 mg/kg netilmicin, read-out: percent bioavailability): 73%
Compound: CCN[C@@H]1C[C@H](N)[C@@H](O[C@H]2OC(CN)=CC[C@H]2N)[C@H](O)[C@H]1O[C@H]1OC[C@](C)(O)[C@H](NC)[C@H]1O [Netilmicin]

- concentration at 60 min ([9]; isepamicin/PEP 75 mg/kg isepamicin, 60 min): 102000 ng/mL
- concentration at 120 min ([9]; isepamicin/PEP 75 mg/kg isepamicin, 120 min): 73600 ng/mL
- concentration at 180 min ([9]; isepamicin/PEP 75 mg/kg isepamicin, 180 min): 49900 ng/mL
- concentration at 240 min ([9]; isepamicin/PEP 75 mg/kg isepamicin, 240 min): 43900 ng/mL
- concentration at 360 min ([9]; isepamicin/PEP 75 mg/kg isepamicin, 360 min): 35800 ng/mL
- concentration at 30 min ([9]; isepamicin/PEP (75 mg/kg isepamicin, 400 mg/kg sucrose stearate, glucosamine, methylcellulose), 30 min): 84200 ng/mL
Compound: CN[C@@H]1[C@@H](O)[C@@H](O[C@@H]2[C@@H](O)[C@H](O[C@H]3O[C@H](CN)[C@@H](O)[C@H](O)[C@H]3O)[C@@H](N)C[C@H]2NC(=O)[C@@H](O)CN)OC[C@]1(C)O [Isepamicin]
